Assay results: US6759568B2, “High estrogen-sensitive medaka fish” (President of Hiroshima University, priority 2000, dated 2004)

Tests used:
Type in all cases: in vivo, Oryzias latipes
[1] = system: fertilized eggs (W) of wild medaka fish; assay: Formation of thrombus by 17β-estradiol in fertilized eggs (W) of wild medaka fish; details: 25° C., 3 days
Experimental: Medaka physiological saline solutions (40 mL for each) containing 17 β-estradiol in an amount of 2 ng/L, 20 ng/L, 200 ng/L, 2 μg/L, 1 mg/L, and 4 mg/L were supplied in culture plates, respectively. Three sets were prepared for each concentration. About 30 fertilized eggs (W) of 12-hours after fertilization which were obtained by mutual mating between wild medaka fish, were placed in the first set of culture plates. About 30 fertilized eggs (A) of 12-hours after fertilization which were obtained by crossing the strain A of the transgenic medaka fish with wild medaka fish, were placed in the second set of culture plates. About 30 fertilized eggs (C) of 12-hours after fertilization which were obtained by crossing the strain C of the transgenic medaka fish with wild medaka fish, were placed in the third set of culture plates. After the culture plates were incubated at 25° C. for 3 days, medaka embryos were checked under dissecting microscope with respect to formation of a thrombus. In almost 100% of the fertilized eggs (W), one or more thrombi were formed at the concentration of 4 mg/L of 17β-estradiol, but were not observed at the concentration of less than 4 mg/L. 1%, 3%, 8%, 49%, 55%, and 100% of the fertilized eggs (A) caused the formation of the thrombi at the concentrations of 2 ng/L, 20 ng/L, 200 ng/L, 2 μg/L, 1 mg/L, and 4 mg/L of 17β-estradiol, respectively. […]

[2] = system: fertilized eggs (A), strain A of the transgenic medaka fish crossed with wild medaka fish; assay: Formation of thrombus by 17β-estradiol in fertilized eggs (A) of strain A transgenic medaka fish; details: for fertilized eggs that caused the formation of the thrombi: fertilized eggs (A), 25° C., 3 days
Experimental: (§1) Medaka physiological saline solutions (40 mL for each) containing 17 β-estradiol in an amount of 2 ng/L, 20 ng/L, 200 ng/L, 2 μg/L, 1 mg/L, and 4 mg/L were supplied in culture plates, respectively. Three sets were prepared for each concentration. About 30 fertilized eggs (W) of 12-hours after fertilization which were obtained by mutual mating between wild medaka fish, were placed in the first set of culture plates. About 30 fertilized eggs (A) of 12-hours after fertilization which were obtained by crossing the strain A of the transgenic medaka fish with wild medaka fish, were placed in the second set of culture plates. About 30 fertilized eggs (C) of 12-hours after fertilization which were obtained by crossing the strain C of the transgenic medaka fish with wild medaka fish, were placed in the third set of culture plates. After the culture plates were incubated at 25° C. for 3 days, medaka embryos were checked under dissecting microscope with respect to formation of a thrombus. In almost 100% of the fertilized eggs (W), one or more thrombi were formed at the concentration of 4 mg/L of 17β-estradiol, but were not observed at the concentration of less than 4 mg/L. 1%, 3%, 8%, 49%, 55%, and 100% of the fertilized eggs (A) caused the formation of the thrombi at the concentrations of 2 ng/L, 20 ng/L, 200 ng/L, 2 μg/L, 1 mg/L, and 4 mg/L of 17β-estradiol, respectively. 19%, 41%, 75%, 73%, 60%, and 100% of the fertilized eggs (C) caused the formation of the thrombi at the same concentrations as mentioned above, respectively.

[3] = system: fertilized eggs (C), strain C of the transgenic medaka fish crossed with wild medaka fish; assay: Formation of thrombus by 17β-estradiol in fertilized eggs (C) of strain C transgenic medaka fish; details: for fertilized eggs that caused the formation of the thrombi: fertilized eggs (C), 25° C., 3 days
Experimental: as §1

C[C@]12CC[C@@H]3c4ccc(O)cc4CC[C@H]3[C@@H]1CC[C@@H]2O [17β-estradiol]
fertilized eggs in which one or more thrombi were formed ([1]; 4 mg/L): ~100%
formation of thrombi ([1]; concentration of less than 4 mg/L): not observed
estrogen sensitivity relative to that of the wild medaka fish ([2]; fertilized eggs (A) versus wild medaka fish): thousand times
fertilized eggs that caused the formation of the thrombi ([2]; 2 ng/L): 1%
fertilized eggs that caused the formation of the thrombi ([2]; 20 ng/L): 3%
fertilized eggs that caused the formation of the thrombi ([2]; 200 ng/L): 8%
fertilized eggs that caused the formation of the thrombi ([2]; 2 μg/L): 49%
fertilized eggs that caused the formation of the thrombi ([2]; 1 mg/L): 55%
fertilized eggs that caused the formation of the thrombi ([2]; 4 mg/L): 100%
estrogen sensitivity relative to that of the wild medaka fish ([3]; fertilized eggs (C) versus wild medaka fish): hundred thousand times
fertilized eggs that caused the formation of the thrombi ([3]; 2 ng/L): 19%
fertilized eggs that caused the formation of the thrombi ([3]; 20 ng/L): 41%
fertilized eggs that caused the formation of the thrombi ([3]; 200 ng/L): 75%
fertilized eggs that caused the formation of the thrombi ([3]; 2 μg/L): 73%
fertilized eggs that caused the formation of the thrombi ([3]; 1 mg/L): 60%
fertilized eggs that caused the formation of the thrombi ([3]; 4 mg/L): 100%
